Results: patent publication US5591762A, “Benzimidazoles useful as angiotensin-11 antagonists” (Dr. Karl Thomae GmbH, priority 1991, dated 1997)
pIC50: −log10 of the molar value.

How the values were obtained:
[1] = tested on: conscious renally hypertensive rats; test: Hypotensive effect in conscious renally hypertensive rats after oral administration; format: in vivo, rat; settings: 10 mg/kg
Protocol: In addition, compounds D, E, F, G, H, M and O were tested on conscious renally hypertensive rats for their effect after oral administration using methods known from the literature.

[2] = tested on: rat model of renovascular hypertension (2-kidney 1-clip rat); test: Renovascular hypertension: blood pressure lowering in 2-kidney 1-clip rats (telemetry, oral); format: in vivo; settings: two times daily
Source text: DESCRIPTION OF METHOD: RENOVASCULAR HYPERTENSION
Blood pressure lowering effects of angiotensin-II antagonists were investigated in a rat model of renovascular hypertension. This model, the 2-kidney 1-clip rat, is characterized by an elevated renin activity (see J. Exper. Med. 59, 347-378 (1934), J. Applied Physiol. 31(1), 142-144 (1971) and Gross D. R. in "Animal Models in Cardiovascular Research: Animal Models of hypertension" Martinus Nijhoff Publishers (1985)). The compounds are given two times daily by oral administration to conscious freely moving rats which have been implanted with a chronic-use pressure transmitter to monitor blood pressure and heart rate continuously (PhysioTel® telemetry device).
Male rats (140-150 g) are anaesthetized with pentobarbitonesodium (50 mg/kg i.p.). The abdominal cavity is opened by a midline incision. A solid silver clip with an internal diameter of 0.20 mm is applied to the left renal artery as close as possible to the aorta. The contralateral kidney is not disturbed. The catheter of a pressure transmitter (TA11PA-C40) is inserted in the abdominal aorta and the transmitter fixed to abdominal musculature. The abdomen is closed with sutures. The animals are allowed to recover for several weeks and housed individually in cages.
After the implantation of the chronic-use device, blood pressure and heart rate are transmitted by telemetry and the signals are received by a RA 1010 General Purpose Receiver (Data Science Int.). Data are acquired with the Dataquest® IV 1.11 System on a Hewlett Packard Vectra ES/12 386 computer.
Compounds are dissolved in 1M HCl or 1M NaOH. To stabilize the solution β-cyclodextrin (1.8 g/v%) is added. The solutions (0.3 and 1 mg/kg/2 ml) are orally given by gavage at 10.00 a.m. and 4.00 p.m..

angiotensin II-receptor = molecular target: T1, angiotensin II-receptor (Rattus norvegicus, UniProt P25095); test: Angiotensin II-receptor bonding (binding) with [125I]-angiotensin II on rat lung homogenate; settings: 50 pM [125I]-angiotensin II, 60 min at 37° C., pH 7.40
T1 construct: The tissue (rats lung ) is homogenised in Tris-buffer; from tissue; host or cells: rat lung homogenate (washed 20,000×g pellet)
T1 sequence (P25095 1-359): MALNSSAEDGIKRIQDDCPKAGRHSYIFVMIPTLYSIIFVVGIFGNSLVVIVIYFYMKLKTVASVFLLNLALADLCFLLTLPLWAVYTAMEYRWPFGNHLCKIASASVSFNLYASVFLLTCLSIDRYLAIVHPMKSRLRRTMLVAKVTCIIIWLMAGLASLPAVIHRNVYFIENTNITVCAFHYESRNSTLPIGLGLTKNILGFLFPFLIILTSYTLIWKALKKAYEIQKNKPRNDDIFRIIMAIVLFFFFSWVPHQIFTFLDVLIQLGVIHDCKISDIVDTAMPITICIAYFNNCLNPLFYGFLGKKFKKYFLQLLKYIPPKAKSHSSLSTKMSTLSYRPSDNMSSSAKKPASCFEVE
Protocol: DESCRIPTION OF METHOD: ANGIOTENSIN II-RECEPTOR BONDING
The tissue (rats lung ) is homogenised in Tris-buffer (50 mMol Tris, 150 mMol NaCl, 5 mMol EDTA, pH 7.40) and centrifuged twice for 20 minutes at 20,000×g. The finished pellets are resuspended in incubating buffer (50 mMol Tris, 5 mMol MgCl2, 0.2% BSA, pH 7.40) 1:75, based on the moist weight of the tissue. Each 0.1 ml of homogenate is incubated for 60 minutes at 37° C. with 50 pM [^125 I]-antiotensin II (NEN, Dreieich, FRG) with increasing concentrations of the test substance in a total volume of 0.25 ml. Incubation is ended by rapid filtration through glass fibre filter mats. The filters are each washed with 4 ml of ice cold buffer (25 mMol Tris, 2.5 mMol MgCl2, 0.1% BSA, pH 7.40). The bound radioactivity is measured using a gamma-counter. The corresponding IC50 value is obtained from the dose-activity curve.

pIC50 (angiotensin II-receptor)	SMILES	hypotensive effect [1]	also measured
	Cc1cc(-c2nc3ccccc3n2C)cc2c1nc(C1CC1)n2Cc1ccc(-c2ccccc2C(=O)O)cc1 [M]	exhibited a hypotensive effect	
	CCCCc1nc2c(C)cc(N3C(=O)C(C)=C(C)C3=O)cc2n1Cc1ccc(-c2ccccc2C(=O)O)cc1 [H]	exhibited a hypotensive effect	
	CCCc1nc2c(C)cc(-c3nc4ccccc4n3C)cc2n1Cc1ccc(-c2ccccc2C(=O)O)cc1 [D]	exhibited a hypotensive effect	Blood pressure lowering activity ([2]; 0.3 mg/kg): -37 mmHg; Blood pressure lowering activity ([2]; 1.0 mg/kg): -68 mmHg
	CCCc1nc2c(C)cc(-c3cn4cccnc4n3)cc2n1Cc1ccc(-c2ccccc2-c2nn[nH]n2)cc1 [O]	exhibited a hypotensive effect	
	CCCc1nc2c(C)cc(N3CCCCS3(=O)=O)cc2n1Cc1ccc(-c2ccccc2-c2nn[nH]n2)cc1 [G]	exhibited a hypotensive effect	
8.92	CCCc1nc2c(C)cc(-c3cn(C)cn3)cc2n1Cc1ccc(-c2ccccc2C(=O)O)cc1 [V]		
	CCCCc1nc2c(C)cc(-c3nc4ccccc4n3C)cc2n1Cc1ccc(-c2ccccc2-c2nnn[nH]2)cc1 [T]		Blood pressure lowering activity ([2]; 0.3 mg/kg): -24 mmHg
8.00	CCOc1nc2ccc(-c3cn(C(C)C)cn3)cc2n1Cc1ccc(-c2ccccc2C(=O)O)cc1 [Y]		
	CCCc1nc2c(C)cc(-c3cn4ccccc4n3)cc2n1Cc1ccc(-c2ccccc2-c2nnn[nH]2)cc1 [U]		Blood pressure lowering activity ([2]; 1.0 mg/kg): -43 mmHg
7.82	CCCc1nc2c(C)cc(-c3cn(C4CCCCCC4)cn3)cc2n1Cc1ccc(-c2ccccc2C(=O)O)cc1 [Z]		
	CCCc1nc2c(C)cc(N3Cc4ccccc4C3=O)cc2n1Cc1ccc(-c2ccccc2-c2nn[nH]n2)cc1 [F]	exhibited a hypotensive effect	
8.82	CCCc1nc2c(C)cc(-c3cn(C(C)C)cn3)cc2n1Cc1ccc(-c2ccccc2-c2nn[nH]n2)cc1 [W]		
8.89	CCCc1nc2c(C)cc(-c3cn(CCCN(C)C)cn3)cc2n1Cc1ccc(-c2ccccc2C(=O)O)cc1 [BB]		
8.47	CCCc1nc2c(C)cc(-c3cn(CC(N)=O)cn3)cc2n1Cc1ccc(-c2ccccc2C(=O)O)cc1 [AA]		
	CCCc1nc2c(C)cc(-c3nc4ccccc4n3C)cc2n1Cc1ccc(-c2ccccc2-c2nn[nH]n2)cc1 [E]	exhibited a hypotensive effect	Blood pressure lowering activity ([2]; 0.3 mg/kg): -55 mmHg; Blood pressure lowering activity ([2]; 1.0 mg/kg): -78 mmHg
7.40	CCCc1nc2c(C)cc(-c3coc(C)n3)cc2n1Cc1ccc(-c2ccccc2C(=O)O)cc1 [X]		
